B1: ATP7B^W1452A/L1455A: full-length ATP7B variant W1452A/L1455A with mutated LIR3 motif (protein)
chain: MPEQERQITAREGASRKILSKLSLPTRAWEPAMKKSFAFDNVGYEGGLDGLGPSSQVATSTVRILGMTCQSCVKSIEDRISNLKGIISMKVSLEQGSATVKYVPSVVCLQQVCHQIGDMGFEASIAEGKAASWPSRSLPAQEAVVKLRVEGMTCQSCVSSIEGKVRKLQGVVRVKVSLSNQEAVITYQPYLIQPEDLRDHVNDMGFEAAIKSKVAPLSLGPIDIERLQSTNPKRPLSSANQNFNNSETLGHQGSHVVTLQLRIDGMHCKSCVLNIEENIGQLLGVQSIQVSLENKTAQVKYDPSCTSPVALQRAIEALPPGNFKVSLPDGAEGSGTDHRSSSSHSPGSPPRNQVQGTCSTTLIAIAGMTCASCVHSIEGMISQLEGVQQISVSLAEGTATVLYNPSVISPEELRAAIEDMGFEASVVSESCSTNPLGNHSAGNSMVQTTDGTPTSVQEVAPHTGRLPANHAPDILAKSPQSTRAVAPQKCFLQIKGMTCASCVSNIERNLQKEAGVLSVLVALMAGKAEIKYDPEVIQPLEIAQFIQDLGFEAAVMEDYAGSDGNIELTITGMTCASCVHNIESKLTRTNGITYASVALATSKALVKFDPEIIGPRDIIKIIEEIGFHASLAQRNPNAHHLDHKMEIKQWKKSFLCSLVFGIPVMALMIYMLIPSNEPHQSMVLDHNIIPGLSILNLIFFILCTFVQLLGGWYFYVQAYKSLRHRSANMDVLIVLATSIAYVYSLVILVVAVAEKAERSPVTFFDTPPMLFVFIALGRWLEHLAKSKTSEALAKLMSLQATEATVVTLGEDNLIIREEQVPMELVQRGDIVKVVPGGKFPVDGKVLEGNTMADESLITGEAMPVTKKPGSTVIAGSINAHGSVLIKATHVGNDTTLAQIVKLVEEAQMSKAPIQQLADRFSGYFVPFIIIMSTLTLVVWIVIGFIDFGVVQRYFPNPNKHISQTEVIIRFAFQTSITVLCIACPCSLGLATPTAVMVGTGVAAQNGILIKGGKPLEMAHKIKTVMFDKTGTITHGVPRVMRVLLLGDVATLPLRKVLAVVGTAEASSEHPLGVAVTKYCKEELGTETLGYCTDFQAVPGCGIGCKVSNVEGILAHSERPLSAPASHLNEAGSLPAEKDAVPQTFSVLIGNREWLRRNGLTISSDVSDAMTDHEMKGQTAILVAIDGVLCGMIAIADAVKQEAALAVHTLQSMGVDVVLITGDNRKTARAIATQVGINKVFAEVLPSHKVAKVQELQNKGKKVAMVGDGVNDSPALAQADMGVAIGTGTDVAIEAADVVLIRNDLLDVVASIHLSKRTVRRIRINLVLALIYNLVGIPIAAGVFMPIGIVLQPWMGSAAMAASSVSVVLSSLQLKCYKKPDLERYEAQAHGHMKPLTASQVSVHIGMDDRWRDSPRATPWDQVSYVSQVSLSSLTSDKPSRHSAAADDDGDKASLALNGRDEEQYI

Assays:
HepG2 WT cells [1] = assay: Autophagy detection by western blot (LC3B-II/LC3B-I), HepG2 WT; type: cell-based, human; details: 24 h treatment, 100–800 µM, effect at 600 µM and 800 µM
Method: (§1) 5 × 10^5 HepG2 cells were cultured in 2 mL of DMEM medium supplemented with 10% FBS and 1% P/S. Once the cell reached 80% confluence, they were treated with varied concentration of CuSO4 (Sigma Aldrich, 209198) from 200 µM to 800 µM for 24 h. For the starvation induction, cells were additionally treated with Earle’s Balanced Salt Solution (EBSS) media (Sigma Aldrich, E3024) for 2 h with or without 50 µM chloroquine (CLQ) prior to lysis with RIPA buffer containing inhibitor cocktails (Roche Life Science, 11697498001). Protein concentration was determined to be sure that the protein of each sample was equally loaded on the Criterion TGX precast gel for western blot detection. ATP7B, GAPDH and LC3B-II/LC3B-I was determined using the above-mentioned antibodies. Western Blot analysis was carried out as described above.

HepG2 ATP7B^−/− cells [2] = assay: Autophagy detection by western blot (LC3B-II/LC3B-I), HepG2 ATP7B-/-; type: cell-based, human; details: 24 h, even at 600 µM and 800 µM
Method: as §1

HepG2 WT cells [3] = assay: Autophagosome-lysosome fusion, tandem sensor RFP-GFP-LC3B, HepG2 WT; type: cell-based, human; details: 24 h, high CuSO4 concentration, significance reached at 800 µM, 30–50 cells per condition
Method: (§2) For the detection of the effect of copper on autophagosome-lysosome fusion, 50,000 cells of each HepG2 WT and HepG2 ATP7B^−/− were grown on laminin-coated coverslips for 24 h, transduced with BacMam-GFP-RFP-LC3B overnight according to the manufacturer’s recommendations. The cells were then treated with CuSO4 at a concentration range from 100 µM to 800 µM for 24 h, fixed with 4% paraformaldehyde for 15 min and finally stained with 250 ng/mL DAPI (Thermo Fisher scientific, Molecular Probes, D1306) for 5 min. The coverslips were fixed on a glass slide using Mowiol 4–88 (Sigma Aldrich, 81381). The fluorescence cell imaging was acquired using a confocal Zeiss LSM 780 microscope with a 63 × 1.40 Oil DIC M27. […] Red and yellow puncta count per cell was done using the particle analysis in image J. For protein ATP7B trafficking analysis, 50,000 cells of HepG2 WT and HepG2 ATP7B^−/− were cultured in a 500 µL cell culture medium on a laminin-coated coverslip for 24 h, then transfected with EGFP-ATP7B. After 6 h post transfection, cells were transduced with BacMam-RFP-Golgi or the BacMam-RFP-Lysosome overnight, then treated with various concentrations of CuSO4 or 200 µM of bathocuproine disulfonate (BCS) for 24 h or EBSS for 2 h, respectively. […] Pearson’s correlation coefficient was analyzed per cell using the colocalization threshold of ImageJ Fiji.

HepG2 ATP7B^−/− cells [4] = assay: Autophagosome-lysosome fusion, tandem sensor RFP-GFP-LC3B, HepG2 ATP7B-/-; type: cell-based, human; details: 24 h, 800 µM, 30–50 cells per condition
Method: as §2

HepG2 WT cells [5] = assay: Colocalization of EGFP-ATP7B-WT with TGN, lysosome (LAMP1) and LC3B markers; type: cell-based, human
Method: For the detection of the effect of copper on autophagosome-lysosome fusion, 50,000 cells of each HepG2 WT and HepG2 ATP7B^−/− were grown on laminin-coated coverslips for 24 h, transduced with BacMam-GFP-RFP-LC3B overnight according to the manufacturer’s recommendations. The cells were then treated with CuSO4 at a concentration range from 100 µM to 800 µM for 24 h, fixed with 4% paraformaldehyde for 15 min and finally stained with 250 ng/mL DAPI (Thermo Fisher scientific, Molecular Probes, D1306) for 5 min. The coverslips were fixed on a glass slide using Mowiol 4–88 (Sigma Aldrich, 81381). The fluorescence cell imaging was acquired using a confocal Zeiss LSM 780 microscope with a 63 × 1.40 Oil DIC M27. […] Red and yellow puncta count per cell was done using the particle analysis in image J. For protein ATP7B trafficking analysis, 50,000 cells of HepG2 WT and HepG2 ATP7B^−/− were cultured in a 500 µL cell culture medium on a laminin-coated coverslip for 24 h, then transfected with EGFP-ATP7B. After 6 h post transfection, cells were transduced with BacMam-RFP-Golgi or the BacMam-RFP-Lysosome overnight, then treated with various concentrations of CuSO4 or 200 µM of bathocuproine disulfonate (BCS) for 24 h or EBSS for 2 h, respectively. To detect LC3B or endogenous ATP7B, the fixed cells were incubated with anti-LC3B or anti-ATP7B antibodies at 4 °C overnight followed by secondary antibody incubation, Alexa Fluor 568 goat anti-rabbit, at temperature for 1 h in the dark. Pearson’s correlation coefficient was analyzed per cell using the colocalization threshold of ImageJ Fiji.

LC3B = biological target: T1, LC3B (Homo sapiens, UniProt Q9GZQ8); assay: Pull-down with resin-bound GST-LC3B as bait from transfected HEK293H cell lysate; type: binding; details: 500 µg HEK293H lysate, western blot, repeated two times
T1 construct: His6 (N, cleaved yes); MBP (N, cleaved yes); made in house; host or cells: E. coli BL21-codonplus (DE3)-RIL
Method: GST tagged LC3B was used as a bait to trap the full-length ATP7B from a lysate obtained from ATP7B transfected human embryonic kidney 293 H cell line (HEK293H) cells. To this end, 100,000 cells of HEK293H were cultured in 1 mL of DMEM media (Thermo Fisher Scientific, 31966-047) plus 10% fetal bovine serum (FBS) (Fisher Scientific, 10309433) and 1% Penicillin-Streptomycin (P/S) (Thermo Fisher Scientific, 15140122). Once the cells reached 80% confluence, cells were transfected with pIRES-GFP carrying full-length ATP7B (NM_000053.4) or its W1452A/L1455A mutant using Lipofectamine LTX and plus reagent (Invitrogen, 15338100). […] Blots were imaged on an Infrared fluorescence imaging system using Li-Cor 9120 Odyssey (LI-COR Biosciences, Bad Homburg, Germany). Protein band intensity quantification was done using ImageJ (National Institutes of Health, Bethesda, MD, USA).

ATP7B in elution fraction of GST-LC3B pull-down (LC3B) | Molecule | LC3B-II level (western blot) (HepG2 WT cells [1]) | LC3B-II/LC3B-I ratio (western blot) (HepG2 ATP7B^−/− cells [2]) | red/yellow puncta ratio (autophagosome-lysosome fusion) (HepG2 WT cells [3]) | red/yellow puncta ratio (autophagosome-lysosome fusion) (HepG2 ATP7B^−/− cells [4]) | TGN fraction of EGFP-ATP7B (HepG2 WT cells [5]; 400 µM CuSO4, 24 h) | fold increase of EGFP-ATP7B colocalization with lysosomal structures vs basal medium condition (HepG2 WT cells [5]; 400 µM CuSO4, 24 h) | colocalization of EGFP-ATP7B with lysosomal structures (LAMP1) (HepG2 WT cells [5]; 400 µM CuSO4, 24 h, percentage from mean Pearson's correlation coefficient, 30 cells) [%] | fold elevation of EGFP-ATP7B colocalization with LC3B vs basal copper concentration (HepG2 WT cells [5]; high CuSO4 concentration (400 µM), 24 h) [fold] | colocalization of EGFP-ATP7B with LC3B (HepG2 WT cells [5]; high CuSO4 concentration (400 µM), 24 h, from mean Pearson's correlation coefficient, 30 cells) [%]
 | O=S(=O)([O-])[O-].[Cu+2] [CuSO4] | significant increase of LC3B-II | did not significantly alter | increased red/yellow puncta ratio | significantly decreased | no TGN fraction was detectable | about 1.2 fold | 83.6 | 4.8 | 11.6
largely reduced | B1 |  |  |  |  |  |  |  |  | 

Reference: PMC8625360 (Cells, 2021)
